The values below come from PMC5429621 (Scientific Reports, 2017).

The target in one test is T1, hP2X1R (Homo sapiens, UniProt P51575).
T1 construct: expressed in transfected cells; host or cells: Xenopus laevis oocytes (cRNA injected)
T1 sequence (P51575 1-399): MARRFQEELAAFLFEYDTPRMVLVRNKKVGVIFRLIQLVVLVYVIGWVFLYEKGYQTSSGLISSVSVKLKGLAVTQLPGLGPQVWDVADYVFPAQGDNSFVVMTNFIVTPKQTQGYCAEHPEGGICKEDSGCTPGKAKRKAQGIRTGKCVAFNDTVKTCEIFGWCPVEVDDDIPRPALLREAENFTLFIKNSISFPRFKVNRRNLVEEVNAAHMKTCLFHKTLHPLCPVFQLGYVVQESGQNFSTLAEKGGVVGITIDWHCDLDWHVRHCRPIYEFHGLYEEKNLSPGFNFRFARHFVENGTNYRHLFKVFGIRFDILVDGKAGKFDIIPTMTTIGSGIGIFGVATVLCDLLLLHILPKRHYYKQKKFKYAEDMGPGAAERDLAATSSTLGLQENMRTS
Put plainly: two-electrode voltage clamp, Xenopus oocytes. It counts as cell-based. An excerpt: The hP2X1R was a gift from Dr Lin-Hua Jiang (University of Leeds, UK) and the hP2X1R cDNA has been described previously. Chimeras were generated by megaprimer-mediated domain swapping. In addition to chimeras, point mutations, deletions and insertions were made using the QuikChange (Stratagene) or Q5 (New England Bioscience) mutagenesis kits. The production of the correct mutations and absence of coding errors was verified by DNA sequencing (Automated ABI Sequencing Service, University of Leicester, UK).
P2XR constructs were transcribed to produce sense-strand cRNA (mMessage mMachine, Ambion, Austin, TX). Manually defoliculated stage V Xenopus laevis oocytes were injected with 50 nl (50 ng) of cRNA using an Inject + Matic microinjector (J.A. Gaby, InjectMatic, Geneva, Switzerland) and stored at 16 °C in ND96 buffer (in mM, NaCl 96, KCl 2, CaCl2 1.8, MgCl2 1, sodium pyruvate 5, HEPES 5 (pH 7.6) supplemented with 50 µg/ml gentamycin and 50 µg/ml tetracycline). For electrophysiological recordings (3–7 days post-injection) oocytes were bathed in divalent free ND96 buffer (in mM, NaCl 96, KCl 2, sodium pyruvate 5, HEPES 5 and 0.1 flufenamic acid, pH 7.6).
Two-electrode voltage clamp recordings were carried out using a GeneClamp 500B amplifier with a Digidata 1322 A analog to digital convertor and pCLAMP 8.2 acquisition software (Molecular Devices, Menolo Park, CA) at a holding potential of −60 mV. ATP (sodium salt, Sigma) was applied via a U-tube perfusion system for 3 s at 3–5 minute intervals to allow reproducible responses to be recorded. For determination of antagonist sensitivity AZ10606120 (Tocris) was bath perfused as well as co-applied with ATP through the U-tube. […]
Concentration response curves were normalized to the maximal response and fitted with the Hill equation (variable slope) with GraphPad Prism 6 (Graphpad software, San Diego, CA). […] Any significant differences were calculated by one-way analysis of variance, followed by Bonferroni’s test (using GraphPad Prism 6). […]

A further test concerns the target P2X7 receptor (P2X7R). Particulars: read-out: ATP EC50, physiological concentrations of calcium and magnesium; cited from earlier work.
The target in test [1] is T2, P2X7 73–79 deletion mutant (hP2X7-2Nβ background) (Homo sapiens, UniProt Q99572, DEL73-79/I21V/M24R/N16P/N25R/Q22R/R20V/S23N/T19I/Y26L).
T2 construct: expressed in transfected cells; host or cells: Xenopus laevis oocytes (cRNA injected)
T2 sequence (Q99572 with tags, fused parts or gaps N16P/T19I/R20V/I21V/Q22R/S23N/M24R/N25R/Y26L/DEL73-79): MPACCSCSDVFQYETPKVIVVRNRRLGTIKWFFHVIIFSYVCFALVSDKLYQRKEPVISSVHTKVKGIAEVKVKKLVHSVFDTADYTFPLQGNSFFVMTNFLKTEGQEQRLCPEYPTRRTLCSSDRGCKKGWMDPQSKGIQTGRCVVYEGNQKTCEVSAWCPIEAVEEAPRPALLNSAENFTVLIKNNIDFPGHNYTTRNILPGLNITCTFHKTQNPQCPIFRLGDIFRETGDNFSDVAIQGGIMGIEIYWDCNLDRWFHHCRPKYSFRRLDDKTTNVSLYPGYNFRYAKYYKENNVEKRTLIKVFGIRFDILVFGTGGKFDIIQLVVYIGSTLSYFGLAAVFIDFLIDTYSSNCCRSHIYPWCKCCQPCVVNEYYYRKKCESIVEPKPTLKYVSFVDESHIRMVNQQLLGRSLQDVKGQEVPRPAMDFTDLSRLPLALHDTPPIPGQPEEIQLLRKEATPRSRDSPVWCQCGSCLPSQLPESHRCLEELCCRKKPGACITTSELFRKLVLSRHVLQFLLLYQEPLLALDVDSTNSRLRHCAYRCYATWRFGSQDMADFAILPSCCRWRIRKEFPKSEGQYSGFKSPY
Kind of test: two-electrode voltage clamp, Xenopus oocytes. In kind it is cell-based.

Molecules are shown by their SMILES.

Consider `Nc1ncnc2c1ncn2[C@@H]1O[C@H](COP(=O)(O)OP(=O)(O)OP(=O)(O)O)[C@@H](O)[C@H]1O` [ATP], for which the Peak amplitude at hP2X1R (P2X1, maximal ATP) is 7.90 ± 1.08 μA; in test [1] (73–79 delete, maximal ATP) it was 2.05 ± 0.23 μA. Moreover, the EC50 at P2X7 receptor (P2X7R) was 300 to 1000 µM. In test [1] (73–79 del, relative to P2X7-2Nβ), the “increase in ATP sensitivity” value is 2–3 fold.
On to `Cl.Cl.O=C(CC12CC3CC(CC(C3)C1)C2)Nc1cccc2nc(NCCNCCO)ccc12` [AZ10606120, N-[2-[[2-[(2-Hydroxyethyl)amino]ethyl]amino]-5-quinolinyl]-2-tricyclo[3.3.1.13,7]dec-1-ylacetamide dihydrochloride], for which the “AZ10606120 pIC50” value on hP2X1R (P2X1, EC90 ATP) was “insensitive”. Besides, on hP2X1R (at 10 μM), the “effect of AZ10606120 at P2X1R” value was “ineffective”.
